What was measured:
CYP1B1 = assay: quantitative real-time reverse transcription PCR; type: cell-based, human; settings: MCF7 and MDA-MB-231 cells; 250 ppm CO
Description: (§1) mRNA was isolated from cells (MCF7/TGL and MDA-MB-231/TGL) grown on 6-cm dishes using RNeasy mini kit (Qiagen, Hilden, Germany) containing gDNA Eliminator spin columns. cDNA was generated using the SuperScript III First-strand synthesis system with random hexamers (Invitrogen, Carlsbad, CA), and power SYBR green (Invitrogen, Carlsbad, CA)-based quantitative real-time PCR was performed using primer specific for HRG1 (human, forward: 5′- […] -3′ (SEQ ID NO: 1), reverse: 5′- […] -3′ (SEQ ID NO: 2)) or HCP1 (human forward: 5′- […] -3′ (SEQ ID NO: 3), reverse: 5′-[…] -3′ (SEQ ID NO: 4)), CYP1B1 (human, forward: 5′TGAGTGCCGTGTGTTTCGG -3′ (SEQ ID NO: 5), reverse: 5′-[…] -3′ (SEQ ID NO: 6)), SP1 (human, forward: 5′-GTGGCCGCTACCTTCACTG -3′ (SEQ ID NO: 7), reverse: 5′-GCCCCACTCCTACTTGGTC -3′ (SEQ ID NO: 8)) with the comparative CT method (ΔΔCT; ABI).
(§2) Heme is known to stimulate synthesis of many hemoproteins. Accordingly, hemoproteins whose expression was differentially regulated by low-dose CO in MCF7 and MDA-MB-231 cell lines were screened. CYP1B1, a heme-regulated protein, was identified as a top candidate in the list because of its following properties. First, CYP1B1 has been reported to induce the expression of SP1 transcription factor, and Sp1 interacts with Myc for synergistic transcriptional regulation for Myc target genes. […]

SP1 = assay: quantitative real-time reverse transcription PCR; type: cell-based, human; settings: MCF7 and MDA-MB-231 cells; 250 ppm CO
Description: as §1, §2

[C-]#[O+] [CO, Carbon monoxide]
CYP1B1 mRNA levels (CYP1B1): significantly reduced
SP1 mRNA levels (SP1): significantly reduced

Reference: patent US20230346831A1, “METHODS FOR TREATING […] USING LOW DOSE CARBON MONOXIDE” (priority 2020, published 2023)
